According to the kinase profiling compilation of Christmann-Franck et al. (2016):
Each block holds one molecule with its values, some of them ahead of it.

Legend:
Test in all cases: KINOMEscan competition binding
Conditions in all cases: compound 10.0 µM
DCLK2 (human) = DCLK2 (human) (UniProt Q8N568)
MAP3K10 (human) = MAP3K10 (human) (UniProt Q02779)
TXK (human) = TXK (human) (UniProt P42681)
LATS2 (human) = LATS2 (human) (UniProt Q9NRM7)
DDR1 (human) = DDR1 (human) (UniProt Q08345)
ROS1 (human) = ROS1 (human) (UniProt P08922)
Chain of ROS1 (human) (P08922 whole entry, looked up): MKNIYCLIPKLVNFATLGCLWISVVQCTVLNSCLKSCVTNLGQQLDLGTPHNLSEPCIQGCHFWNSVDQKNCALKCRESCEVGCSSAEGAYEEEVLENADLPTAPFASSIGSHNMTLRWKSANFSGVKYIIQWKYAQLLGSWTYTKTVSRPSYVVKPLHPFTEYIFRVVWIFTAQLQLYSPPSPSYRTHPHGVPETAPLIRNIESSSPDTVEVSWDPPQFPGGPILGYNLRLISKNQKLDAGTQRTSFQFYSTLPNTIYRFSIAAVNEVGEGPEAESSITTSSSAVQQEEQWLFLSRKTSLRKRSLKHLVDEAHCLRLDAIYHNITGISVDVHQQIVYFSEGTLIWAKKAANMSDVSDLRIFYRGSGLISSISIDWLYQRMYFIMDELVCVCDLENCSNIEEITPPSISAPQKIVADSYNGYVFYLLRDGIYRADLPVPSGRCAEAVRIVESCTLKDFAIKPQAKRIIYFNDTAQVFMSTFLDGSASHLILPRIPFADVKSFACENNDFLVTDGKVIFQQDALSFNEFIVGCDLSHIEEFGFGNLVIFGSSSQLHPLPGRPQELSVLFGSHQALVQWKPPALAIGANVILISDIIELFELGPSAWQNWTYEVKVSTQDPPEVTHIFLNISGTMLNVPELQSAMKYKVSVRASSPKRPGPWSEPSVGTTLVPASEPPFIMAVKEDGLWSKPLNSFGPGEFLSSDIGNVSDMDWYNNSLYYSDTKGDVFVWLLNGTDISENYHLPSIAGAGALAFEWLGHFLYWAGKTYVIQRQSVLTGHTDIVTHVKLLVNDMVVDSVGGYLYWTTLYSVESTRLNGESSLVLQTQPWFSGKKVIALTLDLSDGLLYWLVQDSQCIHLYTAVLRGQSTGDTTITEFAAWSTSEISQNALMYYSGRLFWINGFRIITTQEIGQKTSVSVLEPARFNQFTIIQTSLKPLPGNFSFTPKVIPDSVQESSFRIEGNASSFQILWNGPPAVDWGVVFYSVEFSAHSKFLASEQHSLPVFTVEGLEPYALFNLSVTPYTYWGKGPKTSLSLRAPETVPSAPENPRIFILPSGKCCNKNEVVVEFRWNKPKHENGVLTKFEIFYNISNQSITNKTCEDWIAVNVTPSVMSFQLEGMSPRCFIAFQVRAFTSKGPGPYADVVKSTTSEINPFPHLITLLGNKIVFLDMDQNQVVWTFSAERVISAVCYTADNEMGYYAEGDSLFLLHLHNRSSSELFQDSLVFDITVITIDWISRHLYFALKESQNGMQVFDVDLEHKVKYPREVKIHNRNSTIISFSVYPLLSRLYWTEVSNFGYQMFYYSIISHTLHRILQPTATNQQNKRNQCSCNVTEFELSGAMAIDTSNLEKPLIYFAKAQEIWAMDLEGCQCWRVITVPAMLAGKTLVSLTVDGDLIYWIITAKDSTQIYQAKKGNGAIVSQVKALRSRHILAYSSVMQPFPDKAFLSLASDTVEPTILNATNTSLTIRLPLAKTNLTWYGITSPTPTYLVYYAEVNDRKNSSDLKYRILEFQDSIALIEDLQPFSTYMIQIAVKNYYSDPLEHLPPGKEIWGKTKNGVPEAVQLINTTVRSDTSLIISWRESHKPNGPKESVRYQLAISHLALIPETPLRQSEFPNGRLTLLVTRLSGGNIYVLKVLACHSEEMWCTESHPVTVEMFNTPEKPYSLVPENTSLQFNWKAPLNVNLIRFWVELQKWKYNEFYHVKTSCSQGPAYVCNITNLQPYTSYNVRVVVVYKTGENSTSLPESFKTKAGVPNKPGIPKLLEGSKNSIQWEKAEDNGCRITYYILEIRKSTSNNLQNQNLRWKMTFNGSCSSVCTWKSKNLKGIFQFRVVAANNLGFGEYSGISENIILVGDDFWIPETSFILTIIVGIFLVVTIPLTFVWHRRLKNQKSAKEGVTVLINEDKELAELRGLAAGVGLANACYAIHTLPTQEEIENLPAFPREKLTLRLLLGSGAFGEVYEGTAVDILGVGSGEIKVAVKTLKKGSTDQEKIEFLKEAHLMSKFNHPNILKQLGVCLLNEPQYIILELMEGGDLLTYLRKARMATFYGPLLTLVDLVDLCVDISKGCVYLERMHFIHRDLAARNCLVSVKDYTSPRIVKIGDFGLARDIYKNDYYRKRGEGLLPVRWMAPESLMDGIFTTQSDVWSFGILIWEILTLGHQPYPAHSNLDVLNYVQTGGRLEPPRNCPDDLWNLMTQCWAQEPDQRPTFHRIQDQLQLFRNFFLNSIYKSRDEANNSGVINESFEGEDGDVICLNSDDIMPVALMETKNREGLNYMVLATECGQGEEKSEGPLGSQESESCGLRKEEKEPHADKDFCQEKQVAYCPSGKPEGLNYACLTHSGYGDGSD

FGFR2 (human) = FGFR2 (human) (UniProt P21802)
[1] = test system: EGFR (human), P00533 [P753S; 747-752 del]
[2] = biological target: JAK2 JH1 catalytic (human) (UniProt O60674)
ADCK4 (human) = ADCK4 (human) (UniProt Q96D53)
FLT1 (human) = FLT1 (human) (UniProt P17948)
DCLK1 (human) = DCLK1 (human) (UniProt O15075)
[3] = test system: ABL1 (human), P00519 [T315I]
RPS6KA5 KD1 (human) = RPS6KA5 KD1 (human) (UniProt O75582)
PAK6 (human) = PAK6 (human) (UniProt Q9NQU5)
MAP3K3 (human) = MAP3K3 (human) (UniProt Q99759)
GSK3B (human) = GSK3B (human) (UniProt P49841)
NEK7 (human) = NEK7 (human) (UniProt Q8TDX7)
MAPK3 (human) = MAPK3 (human) (UniProt P27361)
ANKK1 (human) = ANKK1 (human) (UniProt Q8NFD2)
Chain of ANKK1 (human) (Q8NFD2 whole entry, looked up): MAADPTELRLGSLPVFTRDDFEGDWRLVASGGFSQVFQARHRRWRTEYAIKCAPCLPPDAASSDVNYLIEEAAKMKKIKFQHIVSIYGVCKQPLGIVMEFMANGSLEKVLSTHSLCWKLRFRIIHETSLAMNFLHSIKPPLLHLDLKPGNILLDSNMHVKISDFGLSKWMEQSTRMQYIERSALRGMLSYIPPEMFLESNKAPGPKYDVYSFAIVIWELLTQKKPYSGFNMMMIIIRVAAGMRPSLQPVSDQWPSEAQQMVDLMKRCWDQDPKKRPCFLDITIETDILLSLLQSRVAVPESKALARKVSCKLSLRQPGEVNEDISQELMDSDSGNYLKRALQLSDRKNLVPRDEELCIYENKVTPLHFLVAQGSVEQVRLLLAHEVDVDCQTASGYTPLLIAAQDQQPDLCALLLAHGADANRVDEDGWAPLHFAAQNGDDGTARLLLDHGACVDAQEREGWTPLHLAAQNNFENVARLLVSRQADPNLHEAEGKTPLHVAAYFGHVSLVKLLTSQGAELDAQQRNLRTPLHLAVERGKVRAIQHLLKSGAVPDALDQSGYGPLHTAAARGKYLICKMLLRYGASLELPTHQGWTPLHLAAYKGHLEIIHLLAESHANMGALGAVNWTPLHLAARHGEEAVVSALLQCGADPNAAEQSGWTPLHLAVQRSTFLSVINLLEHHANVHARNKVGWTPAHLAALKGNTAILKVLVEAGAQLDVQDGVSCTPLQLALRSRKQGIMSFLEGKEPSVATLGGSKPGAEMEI

CDK15 (human) = CDK15 (human) (UniProt Q96Q40)
CAMK2G (human) = CAMK2G (human) (UniProt Q13555)
BMPR1A (human) = BMPR1A (human) (UniProt P36894)
MAP2K1 (human) = MAP2K1 (human) (UniProt Q02750)
Chain of MAP2K1 (human) (Q02750 whole entry, looked up): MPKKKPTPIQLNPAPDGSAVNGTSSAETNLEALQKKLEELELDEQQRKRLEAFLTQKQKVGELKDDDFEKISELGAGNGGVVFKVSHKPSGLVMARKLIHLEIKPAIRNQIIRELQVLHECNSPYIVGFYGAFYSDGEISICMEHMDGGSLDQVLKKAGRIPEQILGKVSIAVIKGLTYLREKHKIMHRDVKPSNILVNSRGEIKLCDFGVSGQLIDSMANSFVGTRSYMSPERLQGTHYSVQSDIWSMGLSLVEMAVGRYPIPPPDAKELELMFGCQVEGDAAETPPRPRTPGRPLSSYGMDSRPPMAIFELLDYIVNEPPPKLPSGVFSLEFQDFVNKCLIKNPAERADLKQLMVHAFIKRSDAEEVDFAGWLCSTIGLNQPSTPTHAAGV

MAP4K1 (human) = MAP4K1 (human) (UniProt Q92918)
PIK3CD (human) = PIK3CD (human) (UniProt O00329)
MYO3B (human) = MYO3B (human) (UniProt Q8WXR4)
PKN2 (human) = PKN2 (human) (UniProt Q16513)
PRKD2 (human) = PRKD2 (human) (UniProt Q9BZL6)
NLK (human) = NLK (human) (UniProt Q9UBE8)
PRKCQ (human) = PRKCQ (human) (UniProt Q04759)
PRKACB (human) = PRKACB (human) (UniProt P22694)
MLTK (human) = MLTK (human) (UniProt Q9NYL2)
MST1R (human) = MST1R (human) (UniProt Q04912)
MAP3K11 (human) = MAP3K11 (human) (UniProt Q16584)
CSK (human) = CSK (human) (UniProt P41240)
SRMS (human) = SRMS (human) (UniProt Q9H3Y6)
Chain of SRMS (human) (Q9H3Y6 whole entry, looked up): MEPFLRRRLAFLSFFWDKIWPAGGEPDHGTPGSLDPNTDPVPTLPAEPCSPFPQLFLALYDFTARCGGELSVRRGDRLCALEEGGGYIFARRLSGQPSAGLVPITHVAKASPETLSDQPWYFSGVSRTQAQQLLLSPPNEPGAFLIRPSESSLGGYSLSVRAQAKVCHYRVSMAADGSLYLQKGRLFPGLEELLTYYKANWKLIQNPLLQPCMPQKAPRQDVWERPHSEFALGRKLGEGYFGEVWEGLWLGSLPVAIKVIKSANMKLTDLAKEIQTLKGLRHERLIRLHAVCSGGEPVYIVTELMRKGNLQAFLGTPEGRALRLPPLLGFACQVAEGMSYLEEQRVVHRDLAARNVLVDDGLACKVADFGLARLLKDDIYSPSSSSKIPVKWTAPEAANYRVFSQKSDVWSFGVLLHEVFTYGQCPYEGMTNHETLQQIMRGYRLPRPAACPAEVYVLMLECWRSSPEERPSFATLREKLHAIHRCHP

ADCK3 (human) = ADCK3 (human) (UniProt Q8NI60)
[4] = test system: ABL1 (human), P00519 [Q252H]
MAP3K9 (human) = MAP3K9 (human) (UniProt P80192)
MAPK13 (human) = MAPK13 (human) (UniProt O15264)
ABL1 (human) = ABL1 (human) (UniProt P00519)

Chain of MAP3K10 (human) (Q02779 whole entry, looked up): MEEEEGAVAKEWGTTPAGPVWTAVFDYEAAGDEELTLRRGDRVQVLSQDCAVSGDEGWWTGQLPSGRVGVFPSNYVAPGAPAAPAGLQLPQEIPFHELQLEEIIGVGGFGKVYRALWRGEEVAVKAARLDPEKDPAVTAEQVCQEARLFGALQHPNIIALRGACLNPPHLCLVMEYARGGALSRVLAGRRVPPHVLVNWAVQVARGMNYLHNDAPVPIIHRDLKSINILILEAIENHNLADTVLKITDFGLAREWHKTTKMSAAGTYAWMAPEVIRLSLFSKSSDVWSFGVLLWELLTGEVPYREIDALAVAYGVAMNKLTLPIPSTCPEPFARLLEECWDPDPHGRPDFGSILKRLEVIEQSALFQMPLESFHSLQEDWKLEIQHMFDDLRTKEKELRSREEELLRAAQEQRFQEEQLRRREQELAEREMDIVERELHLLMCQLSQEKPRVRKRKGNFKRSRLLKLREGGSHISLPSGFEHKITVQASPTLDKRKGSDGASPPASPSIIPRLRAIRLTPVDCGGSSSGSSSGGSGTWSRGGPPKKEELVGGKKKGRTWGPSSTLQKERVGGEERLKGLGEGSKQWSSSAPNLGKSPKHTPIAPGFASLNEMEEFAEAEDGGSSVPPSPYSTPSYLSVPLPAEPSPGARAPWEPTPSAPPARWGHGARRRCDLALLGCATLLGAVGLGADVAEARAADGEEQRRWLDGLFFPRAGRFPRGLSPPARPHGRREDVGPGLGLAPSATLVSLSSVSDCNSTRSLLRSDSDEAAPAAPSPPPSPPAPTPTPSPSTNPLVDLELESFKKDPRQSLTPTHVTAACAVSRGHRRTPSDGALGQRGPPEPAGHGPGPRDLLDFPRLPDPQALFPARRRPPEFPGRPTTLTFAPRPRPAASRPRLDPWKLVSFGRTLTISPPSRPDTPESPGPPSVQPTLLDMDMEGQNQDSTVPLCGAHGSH

kinase still bound, per cent of control (DCLK2 (human)): 89% | kinase still bound, per cent of control (MAP3K10 (human)): 100% | kinase still bound, per cent of control (TXK (human)): 80% | kinase still bound, per cent of control (LATS2 (human)): 89% | kinase still bound, per cent of control (DDR1 (human)): 81% | kinase still bound, per cent of control (ROS1 (human)): 82% | kinase still bound, per cent of control (FGFR2 (human)): 87% | kinase still bound, per cent of control [1]: 39% | kinase still bound, per cent of control [2]: 85% | kinase still bound, per cent of control (ADCK4 (human)): 84% | kinase still bound, per cent of control (FLT1 (human)): 45% | kinase still bound, per cent of control (DCLK1 (human)): 59% | kinase still bound, per cent of control [3]: 46% | kinase still bound, per cent of control (RPS6KA5 KD1 (human)): 90% | kinase still bound, per cent of control (PAK6 (human)): 100% | kinase still bound, per cent of control (MAP3K3 (human)): 86% | kinase still bound, per cent of control (GSK3B (human)): 53% | kinase still bound, per cent of control (NEK7 (human)): 70% | kinase still bound, per cent of control (MAPK3 (human)): 93% | kinase still bound, per cent of control (ANKK1 (human)): 82% | kinase still bound, per cent of control (CDK15 (human)): 58% | kinase still bound, per cent of control (CAMK2G (human)): 100% | kinase still bound, per cent of control (BMPR1A (human)): 80% | kinase still bound, per cent of control (MAP2K1 (human)): 71% | kinase still bound, per cent of control (MAP4K1 (human)): 100% | kinase still bound, per cent of control (PIK3CD (human)): 100% | kinase still bound, per cent of control (MYO3B (human)): 100% | kinase still bound, per cent of control (PKN2 (human)): 100% | kinase still bound, per cent of control (PRKD2 (human)): 100% | kinase still bound, per cent of control (NLK (human)): 100% | kinase still bound, per cent of control (PRKCQ (human)): 59% | kinase still bound, per cent of control (PRKACB (human)): 100% | kinase still bound, per cent of control (MLTK (human)): 100% | kinase still bound, per cent of control (MST1R (human)): 100% | kinase still bound, per cent of control (MAP3K11 (human)): 88% | kinase still bound, per cent of control (CSK (human)): 100% | kinase still bound, per cent of control (SRMS (human)): 0% | kinase still bound, per cent of control (ADCK3 (human)): 100% | kinase still bound, per cent of control [4]: 14% | kinase still bound, per cent of control (MAP3K9 (human)): 82% | kinase still bound, per cent of control (MAPK13 (human)): 100% | kinase still bound, per cent of control (ABL1 (human)): 24%
SMILES: COc1cc(N2CCN(C)CC2)ccc1Nc1ncc2c(n1)Nc1ccccc1NC2=O

kinase still bound, per cent of control (DCLK2 (human)): 67% | kinase still bound, per cent of control (MAP3K10 (human)): 100% | kinase still bound, per cent of control (TXK (human)): 80% | kinase still bound, per cent of control (LATS2 (human)): 100% | kinase still bound, per cent of control (DDR1 (human)): 100% | kinase still bound, per cent of control (ROS1 (human)): 100% | kinase still bound, per cent of control (FGFR2 (human)): 100% | kinase still bound, per cent of control [1]: 76% | kinase still bound, per cent of control [2]: 14% | kinase still bound, per cent of control (ADCK4 (human)): 80% | kinase still bound, per cent of control (FLT1 (human)): 93% | kinase still bound, per cent of control (DCLK1 (human)): 73% | kinase still bound, per cent of control [3]: 57% | kinase still bound, per cent of control (RPS6KA5 KD1 (human)): 100% | kinase still bound, per cent of control (PAK6 (human)): 17% | kinase still bound, per cent of control (MAP3K3 (human)): 9.9% | kinase still bound, per cent of control (GSK3B (human)): 53% | kinase still bound, per cent of control (NEK7 (human)): 100% | kinase still bound, per cent of control (MAPK3 (human)): 94% | kinase still bound, per cent of control (ANKK1 (human)): 70% | kinase still bound, per cent of control (CDK15 (human)): 50% | kinase still bound, per cent of control (CAMK2G (human)): 65% | kinase still bound, per cent of control (BMPR1A (human)): 100% | kinase still bound, per cent of control (MAP2K1 (human)): 55% | kinase still bound, per cent of control (MAP4K1 (human)): 10% | kinase still bound, per cent of control (PIK3CD (human)): 0% | kinase still bound, per cent of control (MYO3B (human)): 74% | kinase still bound, per cent of control (PKN2 (human)): 41% | kinase still bound, per cent of control (PRKD2 (human)): 8.3% | kinase still bound, per cent of control (NLK (human)): 97% | kinase still bound, per cent of control (PRKCQ (human)): 44% | kinase still bound, per cent of control (PRKACB (human)): 100% | kinase still bound, per cent of control (MLTK (human)): 92% | kinase still bound, per cent of control (MST1R (human)): 93% | kinase still bound, per cent of control (MAP3K11 (human)): 100% | kinase still bound, per cent of control (CSK (human)): 80% | kinase still bound, per cent of control (SRMS (human)): 86% | kinase still bound, per cent of control (ADCK3 (human)): 76% | kinase still bound, per cent of control [4]: 53% | kinase still bound, per cent of control (MAP3K9 (human)): 94% | kinase still bound, per cent of control (MAPK13 (human)): 100% | kinase still bound, per cent of control (ABL1 (human)): 91%
SMILES: O=C1NC(=O)/C(=C/c2c[nH]c(=O)c(-c3ccc(N4CCNCC4)nc3)c2)S1

kinase still bound, per cent of control (DCLK2 (human)): 68% | kinase still bound, per cent of control (MAP3K10 (human)): 100% | kinase still bound, per cent of control (TXK (human)): 100% | kinase still bound, per cent of control (LATS2 (human)): 75% | kinase still bound, per cent of control (DDR1 (human)): 93% | kinase still bound, per cent of control (ROS1 (human)): 21% | kinase still bound, per cent of control (FGFR2 (human)): 100% | kinase still bound, per cent of control [1]: 100% | kinase still bound, per cent of control [2]: 100% | kinase still bound, per cent of control (ADCK4 (human)): 82% | kinase still bound, per cent of control (FLT1 (human)): 100% | kinase still bound, per cent of control (DCLK1 (human)): 56% | kinase still bound, per cent of control [3]: 100% | kinase still bound, per cent of control (RPS6KA5 KD1 (human)): 100% | kinase still bound, per cent of control (PAK6 (human)): 100% | kinase still bound, per cent of control (MAP3K3 (human)): 93% | kinase still bound, per cent of control (GSK3B (human)): 82% | kinase still bound, per cent of control (NEK7 (human)): 81% | kinase still bound, per cent of control (MAPK3 (human)): 100% | kinase still bound, per cent of control (ANKK1 (human)): 91% | kinase still bound, per cent of control (CDK15 (human)): 68% | kinase still bound, per cent of control (CAMK2G (human)): 95% | kinase still bound, per cent of control (BMPR1A (human)): 100% | kinase still bound, per cent of control (MAP2K1 (human)): 85% | kinase still bound, per cent of control (MAP4K1 (human)): 100% | kinase still bound, per cent of control (PIK3CD (human)): 100% | kinase still bound, per cent of control (MYO3B (human)): 89% | kinase still bound, per cent of control (PKN2 (human)): 100% | kinase still bound, per cent of control (PRKD2 (human)): 100% | kinase still bound, per cent of control (NLK (human)): 100% | kinase still bound, per cent of control (PRKCQ (human)): 83% | kinase still bound, per cent of control (PRKACB (human)): 100% | kinase still bound, per cent of control (MLTK (human)): 100% | kinase still bound, per cent of control (MST1R (human)): 100% | kinase still bound, per cent of control (MAP3K11 (human)): 100% | kinase still bound, per cent of control (CSK (human)): 95% | kinase still bound, per cent of control (SRMS (human)): 100% | kinase still bound, per cent of control (ADCK3 (human)): 85% | kinase still bound, per cent of control [4]: 100% | kinase still bound, per cent of control (MAP3K9 (human)): 100% | kinase still bound, per cent of control (MAPK13 (human)): 100% | kinase still bound, per cent of control (ABL1 (human)): 100%
SMILES: COc1cc(N2CCN(C)CC2)ccc1Nc1ncc2c(n1)N(C)c1ccccc1N(C)C2=O
